Target: T1, RON Kinase (Homo sapiens, UniProt Q04912)
T1 construct: purchased Promega V8071
Assay: RON Kinase ADP Glo Assay
Format: biochemical
Conditions: ratio cMET IC50 / RON IC50
Method: RON Kinase ADP Glo Assay • Assay Buffer: 40 mM Tris-HCl, pH7.5, 20 mM MgCl2, 0.1 mg/mL BSA • RON Kinase+ADP-Glo™ Assay (Promega #: V8071) • Substrate: […] Axltide • Enzyme: 100 ng/μL RON Kinase • ATP: 10 mM • ADP-Glo™ Reagent • Kinase Detection Reagent • 384-well white assay plates Kinase assay was done by following instructions from the kit. Briefly, a ten-point serial dilution of compound was prepared at 5× in assay buffer with the final assay concentrations starting at 300 nM, 100 nM, 30 nM, 10 nM . . . 0 nM. Enzyme, substrate, and ATP were used at 25 ng, 2000 ng, and 25 µM, respectively. The assay plate was set up by mixing the components in a total reaction volume of 10 μL per well. The plate was centrifuged gently for 10 seconds and incubated at room temperature (RT) for 60 minutes in the dark. The ADP-Glo Reagent and kinase detection reagent were added and incubated as recommended. The reaction was quantified by measuring luminescence on the Perkin Elmer Envision plate reader.

T1 sequence (Q04912 25-1400): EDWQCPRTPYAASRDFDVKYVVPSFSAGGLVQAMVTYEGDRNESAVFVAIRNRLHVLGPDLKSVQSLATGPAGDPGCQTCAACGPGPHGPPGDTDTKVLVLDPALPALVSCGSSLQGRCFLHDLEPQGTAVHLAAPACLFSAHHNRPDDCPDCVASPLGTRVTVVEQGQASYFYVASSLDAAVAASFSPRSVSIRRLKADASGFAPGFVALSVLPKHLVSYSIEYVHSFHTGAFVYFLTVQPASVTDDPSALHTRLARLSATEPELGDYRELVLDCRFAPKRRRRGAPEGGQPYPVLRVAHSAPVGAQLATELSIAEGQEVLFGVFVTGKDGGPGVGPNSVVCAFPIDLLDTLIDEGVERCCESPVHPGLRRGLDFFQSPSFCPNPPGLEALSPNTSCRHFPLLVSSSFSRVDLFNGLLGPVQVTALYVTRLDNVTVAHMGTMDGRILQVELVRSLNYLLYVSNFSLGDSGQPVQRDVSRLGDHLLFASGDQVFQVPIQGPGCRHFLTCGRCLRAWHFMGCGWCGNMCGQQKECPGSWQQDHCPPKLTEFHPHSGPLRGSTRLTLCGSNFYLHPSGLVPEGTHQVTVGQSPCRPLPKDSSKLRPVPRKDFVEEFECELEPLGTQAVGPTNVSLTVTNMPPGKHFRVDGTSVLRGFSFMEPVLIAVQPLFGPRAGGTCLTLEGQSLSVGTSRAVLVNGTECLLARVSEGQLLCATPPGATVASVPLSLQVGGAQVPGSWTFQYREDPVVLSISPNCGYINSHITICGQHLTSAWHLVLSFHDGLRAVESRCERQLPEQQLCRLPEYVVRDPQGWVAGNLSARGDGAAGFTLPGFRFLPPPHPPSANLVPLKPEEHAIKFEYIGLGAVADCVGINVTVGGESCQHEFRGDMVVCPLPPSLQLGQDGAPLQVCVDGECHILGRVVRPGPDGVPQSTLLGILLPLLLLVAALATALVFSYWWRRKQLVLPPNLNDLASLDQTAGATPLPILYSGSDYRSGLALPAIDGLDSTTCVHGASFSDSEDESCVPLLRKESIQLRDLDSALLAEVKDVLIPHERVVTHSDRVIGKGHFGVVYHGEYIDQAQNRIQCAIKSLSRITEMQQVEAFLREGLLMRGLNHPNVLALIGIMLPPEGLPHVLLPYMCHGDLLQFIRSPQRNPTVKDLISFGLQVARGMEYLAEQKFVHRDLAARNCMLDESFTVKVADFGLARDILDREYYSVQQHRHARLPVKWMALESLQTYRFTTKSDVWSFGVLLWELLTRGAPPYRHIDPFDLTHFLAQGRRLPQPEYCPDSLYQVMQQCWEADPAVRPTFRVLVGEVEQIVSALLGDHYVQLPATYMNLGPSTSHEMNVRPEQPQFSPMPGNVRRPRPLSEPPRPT

- Fold Selectivity (cMET/RON): + (represents a value below 0.5)
Structure (SMILES): CCOc1ccn(-c2ccc(F)cc2)c(=O)c1C(=O)Nc1ccc(Oc2ccnc(N)c2P(C)(C)=O)c(F)c1 [Compound 58, N-{4-[2-amino-3-(dimethylphosphoryl)-4-pyridyloxy]-3-fluorophenyl}-4-ethoxy-1-(4-fluorophenyl)-2-oxo-1,2-dihydronicotinamide]
